Consider one molecule from article PMC9865601 (2023).

Test [1] relates to ssDNA (DNA, single strand) GGCATAGTGCGTGGGCG
The test can be described thus: bio-layer interferometry. As to conditions: 50 mM KCl; 50 mM Tris-HCl, 2% DMSO, 0.05% P20; tested up to 100 µM. A general note: In BLI a coated tip is dipped into the sample, and binding shifts an interference pattern.

The subject of test [2] is HTelo-C (DNA, i motif) TAACCCTAACCCTAACCCTAACCCTAA
The test can be described thus: CD melting, heating ramp, 285 nm. As to conditions: 100 mM KCl; 10 mM LiAsO2Me2, pH 5.5; 2.5 µM oligo, 20 µM IMC-48.

Test [3] relates to c-myc (DNA, i motif) TCCCCACCTTCCCCACCCTCCCCACCCTCCCCA
Description: bio-layer interferometry. To be noted: 50 mM KCl; 50 mM Tris-HCl, 2% DMSO, 0.05% P20; pH 5.5 (also pH 7.5); tested to 100 µM.

In test [4] the test system is HP-GC (DNA, hairpin) CGCGCGCGTTTTCGCGCGCG
The test can be described thus: bio-layer interferometry. To be noted: 50 mM KCl; 50 mM Tris-HCl, 2% DMSO, 0.05% P20; tested up to 100 µM.

In test [5] the test system is HRAS (DNA, i motif) CGCCCGTGCCCTGCGCCCGCAACCCGA
Description: CD melting, heating ramp, 285 nm. As to conditions: 100 mM KCl; 10 mM LiAsO2Me2, pH 5.5; 2.5 µM oligo, 20 µM IMC-48.

In test [6] the test system is Htelo-C (DNA, i motif) TAACCCTAACCCTAACCCTAACCCTAA
The test can be described thus: bio-layer interferometry. To be noted: 50 mM KCl; 50 mM Tris-HCl, 2% DMSO, 0.05% P20; pH 5.5 (also pH 7.5); tested to 100 µM.

Test [7] relates to c-myc (DNA, i motif) TCCCCACCTTCCCCACCCTCCCCACCCTCCCCA
The test can be described thus: CD melting, heating ramp, 285 nm. To be noted: 100 mM KCl; 10 mM LiAsO2Me2, pH 5.5; 2.5 µM oligo, 20 µM IMC-48.

Test [8] relates to bcl-2 (DNA, i motif) CAGCCCCGCTCCCGCCCCCTTCCTCCCGCGCCCGCCCCT
The test can be described thus: CD melting, heating ramp, 285 nm. As to conditions: 100 mM KCl; 10 mM LiAsO2Me2, pH 5.5; 2.5 µM oligo, 20 µM IMC-48.

The test system of test [9] is DAP-Mut (DNA, single strand) CTACCGCTAACGCCTTCGCTCTCGCTTTC
The test can be described thus: bio-layer interferometry. To be noted: 50 mM KCl; 50 mM Tris-HCl, 2% DMSO, 0.05% P20; tested up to 100 µM.

As to `CC(C)CCC[C@@H](C)[C@H]1CC[C@H]2[C@@H]3CC[C@H]4C[C@H](NC(=O)C[N+]5(C)CCCCC5)CC[C@]4(C)[C@H]3CC[C@]12C`, the binding result in [1], in test [3], in [4], in test [6] and in test [9] was “no” throughout. Further, the “∆Tm” value in test [2] was −1.2 ± 0.5 °C; in [5], −1.2 ± 1.1 °C; in test [7] it was −0.5 ± 0.1 °C; in test [8], 0.2 ± 0.4 °C.
